Laboratory results as given in publication PMC5362409, “Antivascular and antitumor properties of the tubulin-binding chalcone TUB091” (Oncotarget, 2016).

Target: T1, αβ-tubulin (β-tubulin, colchicine site) (Bos taurus, UniProt P81947+Q6B856)
T1 construct: gene TUBB2B; calf brain tubulin; with α-tubulin
Experiment: fluorescence competition: displacement of TUB091 fluorescence by TUB092, giving Ka ([…] GTP)
Type: binding
Details: read-out: fluorescence competition: displacement of TUB091 fluorescence by TUB092, giving

## COc1ccc(/C=C(\C)C(=O)c2cc(OC)c3c(c2)OCO3)cc1N [compound 11, (E)-3-(3’’-amino-4’’-methoxyphenyl)-1-(5’-methoxy-3’,4’-methylendioxyphenyl)-2-methylprop-2-en-1-one]
  Kd: 90.9 nM
